Source: patent publication US9096624B2 (OSI Pharmaceuticals, LLC, priority 2009, dated 2015)
Where a name gives a salt, the structure may show the parent alone.

Target: FAK (Homo sapiens, UniProt Q05397)
Experiment: biochemical

Chain of FAK (Q05397 whole entry): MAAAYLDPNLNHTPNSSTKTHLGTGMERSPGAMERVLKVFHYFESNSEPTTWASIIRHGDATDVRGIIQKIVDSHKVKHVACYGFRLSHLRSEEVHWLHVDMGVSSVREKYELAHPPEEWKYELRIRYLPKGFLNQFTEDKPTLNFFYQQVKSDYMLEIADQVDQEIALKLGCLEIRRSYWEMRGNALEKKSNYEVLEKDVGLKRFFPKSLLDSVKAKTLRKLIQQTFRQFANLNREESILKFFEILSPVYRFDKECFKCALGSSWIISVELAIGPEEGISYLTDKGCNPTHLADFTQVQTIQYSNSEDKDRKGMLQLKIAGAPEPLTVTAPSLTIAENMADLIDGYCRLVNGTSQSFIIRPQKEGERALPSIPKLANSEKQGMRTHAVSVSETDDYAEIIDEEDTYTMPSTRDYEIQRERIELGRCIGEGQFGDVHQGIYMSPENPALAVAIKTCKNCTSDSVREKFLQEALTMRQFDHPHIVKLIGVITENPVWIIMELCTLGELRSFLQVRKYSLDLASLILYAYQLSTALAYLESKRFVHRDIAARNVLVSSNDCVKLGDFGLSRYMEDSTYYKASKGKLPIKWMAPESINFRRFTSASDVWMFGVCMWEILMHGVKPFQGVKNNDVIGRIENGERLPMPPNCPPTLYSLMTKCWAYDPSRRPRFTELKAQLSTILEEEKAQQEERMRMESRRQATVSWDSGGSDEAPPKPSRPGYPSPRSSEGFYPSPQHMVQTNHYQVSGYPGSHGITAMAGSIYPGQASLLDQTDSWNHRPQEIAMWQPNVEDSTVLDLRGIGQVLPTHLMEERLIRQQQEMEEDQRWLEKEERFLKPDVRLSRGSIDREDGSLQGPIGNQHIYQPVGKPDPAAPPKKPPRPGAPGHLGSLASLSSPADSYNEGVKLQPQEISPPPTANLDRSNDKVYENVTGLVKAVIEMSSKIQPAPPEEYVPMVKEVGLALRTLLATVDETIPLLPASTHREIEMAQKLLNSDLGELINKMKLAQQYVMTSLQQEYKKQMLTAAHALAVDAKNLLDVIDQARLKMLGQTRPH

Row | Structure (SMILES) | IC50 [nM]
1 | CCOP(=O)(Cc1ccc(Nc2ncc(C(F)(F)F)c(Nc3ccc(N4CCN(CC(=O)O)CC4)c4c3C(=O)N(C)C4)n2)c(OC)c1)OCC [Example 252, [4-(7-{[2-({4-[(Diethoxyphosphoryl)methyl]-2-methoxyphenyl}amino)-5-(trifluoromethyl)pyrimidin-4-yl]amino}-2-methyl-1-oxo-2,3-dihydro-1H-isoindol-4-yl)piperazin-1-yl]acetic acid] | < 1000
2 | CCOP(=O)(Cc1ccc(Nc2ncc(C(F)(F)F)c(Nc3ccc(N4CCN(CC(=O)OC(C)(C)C)CC4)c4c3C(=O)N(C)C4)n2)cc1)OCC [Example 225, tert-Butyl [4-(7-{[2-({4-[(diethoxyphosphoryl)methyl]phenyl}amino)-5-(trifluoromethyl)pyrimidin-4-yl]amino}-2-methyl-1-oxo-2,3-dihydro-1H-isoindol-4-yl)piperazin-1-yl]acetate] | < 1000
3 | CCOP(=O)(Cc1ccc(Nc2ncc(C(F)(F)F)c(Nc3ccc(-c4cnn(CCOC)c4)c4c3C(=O)N(C)C4)n2)cc1)OCC [Example 97, Diethyl (4-{[4-({7-[1-(2-methoxyethyl)-1H-pyrazol-4-yl]-2-methyl-3-oxo-2,3-dihydro-1H-isoindol-4-yl}amino)-5-(trifluoromethyl)pyrimidin-2-yl]amino}benzyl)phosphonate] | < 1000
4 | CCOP(=O)(Cc1cc(F)c(Nc2ncc(C(F)(F)F)c(Nc3ccccc3C(=O)NC)n2)c(OC)c1)OCC [Example 146, Diethyl (3-fluoro-5-methoxy-4-{[4-{[2-(methylcarbamoyl)phenyl]amino}-5-(trifluoromethyl)pyrimidin-2-yl]amino}benzyl)phosphonate] | < 1000
5 | CCOP(=O)(Cc1ccc(Nc2ncc(C(F)(F)F)c(Nc3ccccc3C(=O)N(C)C)n2)cc1)OCC [Example 111, Diethyl (4-{[4-{[2-(dimethylcarbamoyl)phenyl]amino}-5-(trifluoromethyl)pyrimidin-2-yl]amino}benzyl)phosphonate] | < 1000
6 | CCOP(=O)(Cc1ccc(Nc2ncc(C(F)(F)F)c(Nc3ccc(-c4cnn(C[C@H](O)CO)c4)cc3C(=O)NC)n2)cc1)OCC [Example 135, Diethyl (4-{[4-{[4-{1-[(2S)-2,3-dihydroxypropyl]-1H-pyrazol-4-yl}-2-(methylcarbamoyl)phenyl]amino}-5-(trifluoromethyl)pyrimidin-2-yl]amino}benzyl)phosphonate] | < 1000
7 | CCOP(=O)(Cc1ccc(Nc2ncc(C(F)(F)F)c(Nc3ccc(N4CCN5CCOCC5C4)c4c3C(=O)N(C)C4)n2)c(OC)c1)OCC (stereo not drawn) [Example 122, Diethyl (4-{[4-{[7-(hexahydropyrazino[2,1-c][1,4]oxazin-8(1H)-yl)-2-methyl-3-oxo-2,3-dihydro-1H-isoindol-4-yl]amino}-5-(trifluoromethyl)pyrimidin-2-yl]amino}-3-methoxybenzyl)phosphonate] | < 1000
8 | CCOP(=O)(Cc1ccc(Nc2ncc(C(F)(F)F)c(Nc3ccc(Br)cc3C(=O)NC)n2)cc1)OCC [Example 106, Diethyl (4-{[4-{[4-bromo-2-(methylcarbamoyl)phenyl]amino}-5-(trifluoromethyl)pyrimidin-2-yl]amino}benzyl)phosphonate] | < 1000
9 | CCOP(C)(=O)Cc1ccc(Nc2ncc(C(F)(F)F)c(Nc3ccc([C@H]4CC[C@@](C)(O)CC4)c4c3C(=O)N(C)C4)n2)c(OC)c1 (stereo partly drawn) [Example 200, Ethyl (4-{[4-{[7-(cis-4-hydroxy-4-methylcyclohexyl)-2-methyl-3-oxo-2,3-dihydro-1H-isoindol-4-yl]amino}-5-(trifluoromethyl)pyrimidin-2-yl]amino}-3-methoxybenzyl)methylphosphinate] | < 1000
10 | CCCn1cc(-c2ccc(Nc3nc(Nc4ccc(CP(=O)(OCC)OCC)cc4)ncc3C(F)(F)F)c(C(=O)NC)c2)cn1 [Example 126, Diethyl (4-{[4-{[2-(methylcarbamoyl)-4-(1-propyl-1H-pyrazol-4-yl)phenyl]amino}-5-(trifluoromethyl)pyrimidin-2-yl]amino}benzyl)phosphonate] | < 1000
11 | CCOP(=O)(O)Cc1ccc(Nc2ncc(C(F)(F)F)c(Nc3cccc4c3C(=O)N(C)C4)n2)c(OC)c1 [Example 120, Ethyl hydrogen [3-methoxy-4-({4-[(2-methyl-3-oxo-2,3-dihydro-1H-isoindol-4-yl)amino]-5-(trifluoromethyl)pyrimidin-2-yl}amino)benzyl]phosphonate] | < 1000
12 | CCOP(=O)(OCC)C(O)c1ccc(Nc2ncc(C(F)(F)F)c(Nc3ccccc3C(=O)NC)n2)cc1 (stereo not drawn) [Example 133, Diethyl [hydroxy(4-{[4-{[2-(methylcarbamoyl)phenyl]amino}-5-(trifluoromethyl)pyrimidin-2-yl]amino}phenyl)methyl]phosphonate trifluoroacetate] | < 1000
13 | CCOP(=O)(Cc1ccc(Nc2ncc(C(F)(F)F)c(Nc3cccc4c3C(=O)N(OC)C4)n2)c(OC)c1)OCC [Example 187, Diethyl [3-methoxy-4-({4-[(2-methoxy-3-oxo-2,3-dihydro-1H-isoindol-4-yl)amino]-5-(trifluoromethyl)pyrimidin-2-yl}amino)benzyl]phosphonate trifluoroacetate] | < 1000
14 | CCOP(=O)(O)Cc1ccc(Nc2ncc(C(F)(F)F)c(Nc3ccc(N4CCN(C)CC4)c4c3C(=O)N(C)C4)n2)cc1 [Example 249, Ethyl hydrogen (4-{[4-{[2-methyl-7-(4-methylpiperazin-1-yl)-3-oxo-2,3-dihydro-1H-isoindol-4-yl]amino}-5-(trifluoromethyl)pyrimidin-2-yl]amino}benzyl) phosphonate] | < 1000
15 | CCOP(=O)(Cc1ccc(Nc2ncc(C(F)(F)F)c(Nc3ccc(-c4cnn(CCOC)c4)cc3C(=O)NC)n2)cc1)OCC [Example 163, Diethyl (4-{[4-({4-[1-(2-methoxyethyl)-1H-pyrazol-4-yl]-2-(methylcarbamoyl)phenyl}amino)-5-(trifluoromethyl)pyrimidin-2-yl]amino}benzyl) phosphonate] | < 1000
16 | CCOP(=O)(Cc1ccc(Nc2ncc(C(F)(F)F)c(Nc3ccc([C@H]4CC[C@H](OP(=O)(O)O)CC4)c4c3C(=O)N(C)C4)n2)c(OC)c1)OCC [Example 228, Diethyl (3-methoxy-4-{[4-({2-methyl-3-oxo-7-[trans-4-(phosphonooxy)cyclohexyl]-2,3-dihydro-1H-isoindol-4-yl}amino)-5-(trifluoromethyl)pyrimidin-2-yl]amino}benzyl)phosphonate] | < 1000
17 | CCOP(=O)(Cc1ccc(Nc2ncc(C(F)(F)F)c(Nc3ccc(-c4cnn(CC(C)C)c4)cc3C(=O)NC)n2)cc1)OCC [Example 134, Diethyl (4-{[4-({2-(methylcarbamoyl)-4-[1-(2-methylpropyl)-1H-pyrazol-4-yl]phenyl}amino)-5-(trifluoromethyl)pyrimidin-2-yl]amino}benzyl)phosphonate] | < 1000
18 | CCOP(=O)(Cc1ccc(Nc2ncc(C(F)(F)F)c(Nc3ccc([C@H]4CC[C@H](O)CC4)c4c3C(=O)N(C)C4)n2)c(OC)c1)OCC [Example 93, Diethyl (4-{[4-{[7-(trans-4-hydroxycyclohexyl)-2-methyl-3-oxo-2,3-dihydro-1H-isoindol-4-yl]amino}-5-(trifluoromethyl)pyrimidin-2-yl]amino}-3-methoxybenzyl) phosphonate hydrochloride] | < 1000
